Laboratory results as given in patent US10081632B2, “Substituted tetrahydropyrido[3′,2′:4,5]pyrrolo[1,2-α]pyrazine-2-carboxamides as RSK inhibitors” (Phoenix Molecular Designs, priority 2016, dated 2018).
Marks after values point to notes of the source that are not given here.

Key:
[1] = biological target: RSK2 (Homo sapiens (Human), UniProt P51812); assay: Radioisotope kinase assay (SignalChem), RSK2; assay type: biochemical; details: 33P-ATP, 30° C., 15 minutes
Protocol: The assay conditions for the RSK2 kinase target were optimized to yield acceptable enzymatic activity. In addition, the assays were optimized to give high signal-to-noise ratio.
Radioisotope assays (SignalChem) were performed for the evaluation of the kinase target profiling and all assays were performed in a designated radioactive working area. The kinase targets were RSK1, RSK2, RSK3, RSK4 and MK2.
The assay was initiated by the addition of ^33P-ATP and the reaction mixture incubated at 30° C. for 15 minutes. After the incubation period, the assay was terminated by spotting 10 μL of the reaction mixture onto Multiscreen phosphocellulose P81 plate. The Multiscreen phosphocellulose P81 plate was washed 3 times for approximately 15 minutes each in a 1% phosphoric acid solution. The radioactivity on the P81 plate was counted in the presence of scintillation fluid in a Trilux scintillation counter.
Blank controls were set up for each target kinase which included all the assay components except the addition of the appropriate substrate (which was replaced with equal volume of assay dilution buffer). The corrected activity for each target kinase was determined by removing the blank control value.

[2] = tested on: HCC1143 cells; assay: Monolayer growth inhibition, crystal violet assay; assay type: cell-based; details: Homo sapiens, HCC1143, HCC1143 (TNBC), 5 days, single dose on day 1
Description: In all instances a single dose was given on day 1 of the experiment.

[3] = tested on: CD34+ cells; assay: Colony forming unit hematopoietic stem cell assay; assay type: cell-based, human
[4] = tested on: MDA-MB-231 cells; assay: Combination with paclitaxel, monolayer growth (crystal violet); details: MDA-MB-231, 5 days
Protocol: 1×10^3 cells per well were seeded for a final volume of 200 μl per well and plates were incubated for 5 days at 37° C. in a humidified incubator with 5% CO2. Following the incubation period, cell survival was quantified by Alamar blue assay (Life Technologies). Briefly, media from each well was replaced with 100 μl of phosphate buffer saline (PBS, Life Technologies) and cells were incubated with 5% Alamar blue, which incorporates a propriety redox indicator that changes colour in response to metabolic activity, for up to 2 hours. During this period of incubation, the absorbance at 570 nm and 600 nm was measured at various time points, depending on the cell line or sample. Percent survival was calculated by comparing the absorbance ratio of the test well to the control well multiplied by 100%, as indicated in the following formula:
Following, plates were prepared for crystal violet staining. To begin, 100 μl of an 8% formaldehyde (Alfa Aesar) solution diluted in PBS was added to each well and plates were stored at 4° C. overnight. Next, the formaldehyde solution was discarded and the wells were washed with 200 μl ultrapure water per well three times. Following, 50 μl of a 0.5% crystal violet solution (0.5% w/v crystal violet (Alfa Aesar), 25% methanol (VWR)) was added to each well and incubated at room temperature for 20 minutes. The crystal violet solution was discarded and wells were washed with 200 μl ultrapure water per well three times. Next, 50 μl of a 5% sodium dodecyl sulphate (SDS) (Alfa Aesar) was added to each well and the absorbance at 590 nm was measured.

[5] = tested on: phosphorylated Y-box binding protein-1 (YB-1) at serine 102 (P-YB-1S102); assay: Immunoblotting of cell signalling, loss of P-YB-1 in MDA-MB-231 cells
[6] = tested on: MDA-MB-468 cells; assay: Soft agar growth inhibition assay; assay type: cell-based, Human; details: MDA-MB-468 (TNBC), 14-22 days
[7] = tested on: MDA-MB-231 cells; assay: Immuno-oncology gene expression (HLA-DRA, CIITA, CD274 mRNA); assay type: cell-based, Human; details: Compound 16 2 or 4 uM, Compound 18 1, 2, or 4 uM
Description: (§1) A key feature of cancer is low immunogenicity. This can occur by several mechanisms that allow the cells to escape immune recognition. […] HLA-DRA is a member of MHC-II genes and CIITA is the master regulator of MHC II transcription. Thus it was surprising that CIITA, which would be expected to regulate MHC II gene expression, was not altered by RSK inhibition. […] HLA-DRA is important for immune recognition while PD-L1 is involved in immune checkpoints.

[8] = tested on: JIMT-1 cells; assay: as above; assay type: cell-based, Human
Description: as §1

[9] = tested on: MDA-MB-468 cells; assay: Monolayer growth inhibition, crystal violet assay; assay type: cell-based; details: Homo sapiens, MDA-MB-468, MDA-MB-468 (TNBC), 5 days, single dose on day 1
Description: (§2) In all instances a single dose was given on day 1 of the experiment. […] Complete (100%) growth suppression was achievable with several of the compounds in multiple different cell lines.

[10] = tested on: HCC1937 cells; assay: Monolayer growth inhibition, crystal violet assay; assay type: cell-based; details: Homo sapiens, HCC1937, HCC1937 (TNBC, BRCA Mutant), 5 days, single dose on day 1
Description: as §2

[11] = tested on: T47D cells; assay: Monolayer growth inhibition, crystal violet assay; assay type: cell-based; details: Homo sapiens, T47D, T47D (ER/PR), 5 days, single dose on day 1
Description: as §2

[12] = tested on: JIMT-1 cells; assay: Monolayer growth inhibition, crystal violet assay; assay type: cell-based; details: Homo sapiens, JIMT-1, JIMT-1 (HER2), 5 days, single dose on day 1
Description: as §2

[13] = Solubility assessment, 20 mg/ml solution; assay type: physicochemical
How it was run: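 Compounds from 100 mM DMSO stocks diluted to 20 mg/ml in DMEM with FBS and penicillin/streptomycin, vortexed and checked visually for precipitate. One compound instead diluted to 20 mg/ml in phosphate-buffered saline, solution pH 2.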

Chain of RSK2 (P51812 whole entry): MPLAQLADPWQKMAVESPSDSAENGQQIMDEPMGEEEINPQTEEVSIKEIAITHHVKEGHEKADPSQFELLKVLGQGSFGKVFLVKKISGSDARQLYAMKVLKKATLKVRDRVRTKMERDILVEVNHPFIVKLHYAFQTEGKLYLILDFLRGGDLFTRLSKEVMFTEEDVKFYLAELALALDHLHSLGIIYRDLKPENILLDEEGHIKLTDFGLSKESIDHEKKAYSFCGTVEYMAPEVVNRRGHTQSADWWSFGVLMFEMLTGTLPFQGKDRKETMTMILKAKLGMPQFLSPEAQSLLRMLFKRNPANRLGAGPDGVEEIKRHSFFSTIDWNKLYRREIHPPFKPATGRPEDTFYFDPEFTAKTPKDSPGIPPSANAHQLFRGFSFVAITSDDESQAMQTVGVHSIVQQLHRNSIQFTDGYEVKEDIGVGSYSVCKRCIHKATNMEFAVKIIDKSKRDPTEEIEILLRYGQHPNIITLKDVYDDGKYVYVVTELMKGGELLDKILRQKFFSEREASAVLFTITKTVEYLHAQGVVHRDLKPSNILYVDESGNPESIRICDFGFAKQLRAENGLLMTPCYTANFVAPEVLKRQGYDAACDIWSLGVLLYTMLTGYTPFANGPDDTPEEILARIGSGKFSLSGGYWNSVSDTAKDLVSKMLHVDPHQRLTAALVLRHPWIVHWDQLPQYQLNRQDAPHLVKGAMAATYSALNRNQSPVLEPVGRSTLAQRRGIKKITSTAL

With C[C@@H]1CNC(=O)c2cc3ccc(C(=O)Nc4cnn(Cc5ccc(N)cc5)c4)nc3n21 [Compound 18, (R)—N-(1-(4-aminobenzyl)-1H-pyrazol-4-yl)-9-methyl-6-oxo-6,7,8,9-tetrahydropyrido[3′,2′:4,5]pyrrolo[1,2-a]pyrazine-2-carboxamide] the IC50 [1] was 0.02 µM, the IC50 [2] was 2.4 ± 0.8 µM and the IC50 ([3]; Homo sapiens, Hematopoietic stem cell, CD34+ cells from peripheral blood, read-out: CD34+ (PB) IC50) was 16.3 µM. For the same molecule, the “Therapeutic Window” value ([3]; ratio IC50 against CD34+ cells and MDA-MB-231 cells (SA)) was 163X, the “Coefficient of Drug Interaction (CDI)” value ([4]; Compound 18 0.2 μM with paclitaxel (0.3 nM)) was 1.6 and the “Coefficient of Drug Interaction (CDI)” value ([4]; Compound 18 0.4 μM with paclitaxel (0.3 nM)) was 1.2. For the same molecule, the “Coefficient of Drug Interaction (CDI)” value ([4]; Compound 18 0.8 μM with paclitaxel (0.3 nM), considered synergistic) was 0.8*, the “Coefficient of Drug Interaction (CDI)” value ([4]; Compound 18 1.6 μM with paclitaxel (0.3 nM), considered synergistic) was 0.4* and the “Coefficient of Drug Interaction (CDI)” value ([4]; Compound 18 3.1 μM with paclitaxel (0.3 nM), considered synergistic) was 0.2*. For the same molecule, the “Coefficient of Drug Interaction (CDI)” value ([4]; Compound 18 […] with paclitaxel (0.3 nM), considered synergistic) was 0.4*, the “Loss of P-YB-1” value ([5]; MDA-MB-231 cells, 0.01, 0.1, 1, or 10 uM, 24 hrs) was “dose dependent loss of P-YB-1” and the “Loss of P-YB-1” value ([5]; MDA-MB-231 cells, 0.01-1 uM, 96 hrs) was “dose dependent loss of P-YB-1”. The IC50 [6] was 0.3 ± 0.1 µM, the “CD274 (gene encoding PD-L1) levels” value [7] was “reduced levels of CD274” and the “HLA-DRA mRNA” value [7] was “elevated levels of HLA-DRA mRNA”. The “mRNA expression of CIITA” value [7] was “little effect”, the “HLA-DRA mRNA” value [8] was “elevated levels of HLA-DRA mRNA” and the “mRNA expression of CIITA” value [8] was “little effect”. The “CD274 (gene encoding PD-L1) levels” value ([8]; 1-20 uM) was “inhibited CD274”, the IC50 [9] was 2.3 ± 0.9 µM and the IC50 [10] was 7.7 ± 3.5 µM. The IC50 [11] was 2.2 ± 0.8 µM, the IC50 [12] was 11.1 ± 0.5 µM and the “Solubility, 20 mg/ml Solution” value ([13]; 100 mM in DMSO diluted in DMEM growth media to 20 mg/ml) was “Soluble”. For the same molecule, the “pH of 20 mg/ml solution” value ([13]; DMSO stock diluted in DMEM, pH test strips) was 9.
